Reference: the supplement of paper PMC12463676, “Small-molecule dissolution of stress granules by redox modulation benefits ALS models” (Nature Chemical Biology, 2025)

Assays:
lipoamide = compound: NC(=O)CCCCC1CCSS1 [lipoamide]; test: thermal stability z-score vs DMSO; higher = more thermally stabilized by treatment; details: HeLa, lipoamide concentration 100 µM
Experimental: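 Cellular thermal proteome profiling in HeLa cells. Cells were treated with 100 µM lipoamide for 1 h, with or without 1 mM arsenate for a further 1 h, then heated to ten temperatures (37-66.3 °C), and soluble protein was quantified by TMT mass spectrometry relative to 0.1% DMSO controls. The thermal stability score (sum of log2 fold changes minus the abundance score) was transformed to a z-score; mean of n = 3 experiments.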

potassium arsenate = compound: O=[As]([O-])(O)O.[K+] [potassium arsenate]; test: as above; details: HeLa; arsenate concentration 1 mM
Experimental: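 Cellular thermal proteome profiling in HeLa cells treated with 1 mM arsenate for 1 h (DMSO pretreatment), heated to ten temperatures (37-66.3 °C). Soluble protein was quantified by TMT mass spectrometry relative to DMSO controls; the thermal stability score was transformed to a z-score; mean of n = 3 experiments.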

[1] = arsenate co-treatment: 1 mM arsenate 1 h
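Note: each temperature applied for 3 min, abundance score taken as mean log2 fold change at the two lowest temperatures, z-score obtained by mean subtraction and division by SD.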

UniProt P22466, sequence (P22466 whole entry): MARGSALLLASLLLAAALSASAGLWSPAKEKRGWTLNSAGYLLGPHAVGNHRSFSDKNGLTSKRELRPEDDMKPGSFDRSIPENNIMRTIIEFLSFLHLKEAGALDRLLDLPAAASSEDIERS
UniProt P00966, sequence (P00966 whole entry): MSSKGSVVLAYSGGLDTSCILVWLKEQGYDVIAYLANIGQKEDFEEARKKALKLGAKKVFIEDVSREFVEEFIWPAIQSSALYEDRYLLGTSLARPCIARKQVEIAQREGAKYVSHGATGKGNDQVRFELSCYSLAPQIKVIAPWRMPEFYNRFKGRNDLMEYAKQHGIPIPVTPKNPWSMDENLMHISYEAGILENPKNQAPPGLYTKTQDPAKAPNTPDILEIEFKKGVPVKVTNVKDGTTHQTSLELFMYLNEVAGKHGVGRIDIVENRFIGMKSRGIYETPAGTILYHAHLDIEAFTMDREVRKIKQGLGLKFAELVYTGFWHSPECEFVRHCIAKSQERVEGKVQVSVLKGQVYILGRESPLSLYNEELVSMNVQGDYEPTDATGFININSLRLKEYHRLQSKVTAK
UniProt O00142, sequence (O00142 whole entry): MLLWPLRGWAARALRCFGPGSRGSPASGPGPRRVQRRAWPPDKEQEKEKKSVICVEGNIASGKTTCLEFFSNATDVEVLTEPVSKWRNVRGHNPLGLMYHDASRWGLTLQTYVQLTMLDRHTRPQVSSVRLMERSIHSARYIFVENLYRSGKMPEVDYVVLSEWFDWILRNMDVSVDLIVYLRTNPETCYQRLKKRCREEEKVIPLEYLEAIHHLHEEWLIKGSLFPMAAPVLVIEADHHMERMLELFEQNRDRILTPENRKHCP
UniProt O75616, sequence (O75616 whole entry): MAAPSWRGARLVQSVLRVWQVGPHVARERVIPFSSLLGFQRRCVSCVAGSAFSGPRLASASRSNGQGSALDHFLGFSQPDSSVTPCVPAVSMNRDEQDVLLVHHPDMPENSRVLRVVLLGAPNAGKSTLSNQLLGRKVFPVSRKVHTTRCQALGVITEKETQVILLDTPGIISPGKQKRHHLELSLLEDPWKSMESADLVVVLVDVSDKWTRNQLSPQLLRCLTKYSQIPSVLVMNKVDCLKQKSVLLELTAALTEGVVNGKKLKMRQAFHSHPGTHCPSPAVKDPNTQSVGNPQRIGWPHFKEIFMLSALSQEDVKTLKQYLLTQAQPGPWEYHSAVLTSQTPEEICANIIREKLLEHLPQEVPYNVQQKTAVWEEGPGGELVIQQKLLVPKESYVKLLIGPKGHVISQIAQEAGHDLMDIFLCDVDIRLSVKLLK
UniProt O15397, sequence (O15397 whole entry): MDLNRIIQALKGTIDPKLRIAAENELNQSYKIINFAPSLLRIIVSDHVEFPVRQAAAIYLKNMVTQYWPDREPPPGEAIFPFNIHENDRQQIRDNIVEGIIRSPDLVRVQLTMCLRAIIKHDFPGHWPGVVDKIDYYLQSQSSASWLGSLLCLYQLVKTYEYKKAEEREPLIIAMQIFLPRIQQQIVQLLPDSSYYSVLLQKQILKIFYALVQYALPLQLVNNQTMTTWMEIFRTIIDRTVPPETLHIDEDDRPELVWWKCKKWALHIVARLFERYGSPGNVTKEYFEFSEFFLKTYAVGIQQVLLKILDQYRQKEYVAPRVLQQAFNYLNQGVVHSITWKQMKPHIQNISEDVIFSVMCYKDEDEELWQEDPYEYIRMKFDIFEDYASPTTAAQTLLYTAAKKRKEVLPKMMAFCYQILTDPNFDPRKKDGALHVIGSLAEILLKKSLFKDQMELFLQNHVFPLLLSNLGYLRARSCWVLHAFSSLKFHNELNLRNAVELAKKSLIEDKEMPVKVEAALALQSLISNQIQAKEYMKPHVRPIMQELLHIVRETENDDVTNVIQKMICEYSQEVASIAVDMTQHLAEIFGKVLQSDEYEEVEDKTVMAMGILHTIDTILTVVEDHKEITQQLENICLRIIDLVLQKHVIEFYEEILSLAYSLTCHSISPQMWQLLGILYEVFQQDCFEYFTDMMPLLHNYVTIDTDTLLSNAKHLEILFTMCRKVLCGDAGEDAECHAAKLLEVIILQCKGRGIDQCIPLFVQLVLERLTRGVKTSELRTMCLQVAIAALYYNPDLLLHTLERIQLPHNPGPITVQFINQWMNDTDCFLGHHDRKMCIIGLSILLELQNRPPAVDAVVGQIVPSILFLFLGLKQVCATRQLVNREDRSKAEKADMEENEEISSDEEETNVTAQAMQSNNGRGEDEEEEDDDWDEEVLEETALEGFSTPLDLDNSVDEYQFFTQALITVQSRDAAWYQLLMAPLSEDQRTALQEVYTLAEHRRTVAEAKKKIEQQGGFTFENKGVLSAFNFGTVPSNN
UniProt O75475, sequence (O75475 whole entry): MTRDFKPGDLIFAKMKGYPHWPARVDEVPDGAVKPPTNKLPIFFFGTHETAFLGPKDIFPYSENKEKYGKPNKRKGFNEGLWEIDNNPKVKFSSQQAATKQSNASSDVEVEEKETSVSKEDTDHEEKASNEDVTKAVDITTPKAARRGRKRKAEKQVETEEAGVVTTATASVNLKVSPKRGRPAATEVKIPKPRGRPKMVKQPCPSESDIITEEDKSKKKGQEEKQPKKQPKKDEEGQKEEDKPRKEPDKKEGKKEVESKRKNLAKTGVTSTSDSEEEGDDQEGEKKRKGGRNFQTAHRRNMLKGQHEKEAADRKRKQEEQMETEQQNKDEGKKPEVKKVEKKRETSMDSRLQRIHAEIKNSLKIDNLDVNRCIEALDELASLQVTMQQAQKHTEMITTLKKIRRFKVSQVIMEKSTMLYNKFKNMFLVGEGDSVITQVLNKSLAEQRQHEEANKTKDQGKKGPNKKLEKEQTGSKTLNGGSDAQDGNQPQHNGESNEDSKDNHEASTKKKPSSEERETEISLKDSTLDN
UniProt Q96B23, sequence (Q96B23 whole entry): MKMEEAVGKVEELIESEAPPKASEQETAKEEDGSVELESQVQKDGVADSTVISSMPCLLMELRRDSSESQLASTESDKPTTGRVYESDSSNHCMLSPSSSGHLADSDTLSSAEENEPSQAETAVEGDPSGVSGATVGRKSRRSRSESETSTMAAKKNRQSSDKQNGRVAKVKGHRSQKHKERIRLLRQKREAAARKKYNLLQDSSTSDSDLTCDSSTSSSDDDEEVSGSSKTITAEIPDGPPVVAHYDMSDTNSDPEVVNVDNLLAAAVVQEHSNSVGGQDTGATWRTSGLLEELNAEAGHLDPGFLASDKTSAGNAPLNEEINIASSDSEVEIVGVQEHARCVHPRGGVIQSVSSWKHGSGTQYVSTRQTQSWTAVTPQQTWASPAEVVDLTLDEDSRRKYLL
UniProt Q5VT66, sequence (Q5VT66 whole entry): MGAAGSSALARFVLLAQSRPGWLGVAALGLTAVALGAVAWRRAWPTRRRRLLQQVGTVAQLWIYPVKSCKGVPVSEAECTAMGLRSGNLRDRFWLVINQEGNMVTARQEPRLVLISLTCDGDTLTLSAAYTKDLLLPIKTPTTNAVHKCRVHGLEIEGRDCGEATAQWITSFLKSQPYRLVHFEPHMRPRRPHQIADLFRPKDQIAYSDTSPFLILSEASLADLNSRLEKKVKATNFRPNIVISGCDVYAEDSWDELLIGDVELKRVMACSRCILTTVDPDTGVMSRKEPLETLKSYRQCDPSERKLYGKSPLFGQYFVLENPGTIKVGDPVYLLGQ
UniProt P48147, sequence (P48147 whole entry): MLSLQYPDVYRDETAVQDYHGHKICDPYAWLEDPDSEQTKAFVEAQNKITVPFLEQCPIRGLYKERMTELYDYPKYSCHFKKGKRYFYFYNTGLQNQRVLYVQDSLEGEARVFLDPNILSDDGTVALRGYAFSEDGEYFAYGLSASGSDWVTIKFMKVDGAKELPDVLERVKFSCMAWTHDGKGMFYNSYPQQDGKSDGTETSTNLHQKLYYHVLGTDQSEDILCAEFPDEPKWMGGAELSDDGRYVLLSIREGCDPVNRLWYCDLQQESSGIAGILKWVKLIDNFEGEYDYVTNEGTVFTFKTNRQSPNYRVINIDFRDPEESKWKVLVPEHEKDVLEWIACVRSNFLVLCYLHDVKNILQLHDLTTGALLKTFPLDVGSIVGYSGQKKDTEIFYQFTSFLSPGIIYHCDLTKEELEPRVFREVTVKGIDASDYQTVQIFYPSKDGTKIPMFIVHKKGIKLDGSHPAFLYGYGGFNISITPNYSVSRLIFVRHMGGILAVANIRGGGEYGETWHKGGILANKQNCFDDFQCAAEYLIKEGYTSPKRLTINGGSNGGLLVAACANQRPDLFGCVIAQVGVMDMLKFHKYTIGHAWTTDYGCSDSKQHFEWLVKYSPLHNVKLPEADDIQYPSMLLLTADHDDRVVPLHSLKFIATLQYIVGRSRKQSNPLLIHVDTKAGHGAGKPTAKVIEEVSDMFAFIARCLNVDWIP
UniProt Q9NVN8, sequence (Q9NVN8 whole entry): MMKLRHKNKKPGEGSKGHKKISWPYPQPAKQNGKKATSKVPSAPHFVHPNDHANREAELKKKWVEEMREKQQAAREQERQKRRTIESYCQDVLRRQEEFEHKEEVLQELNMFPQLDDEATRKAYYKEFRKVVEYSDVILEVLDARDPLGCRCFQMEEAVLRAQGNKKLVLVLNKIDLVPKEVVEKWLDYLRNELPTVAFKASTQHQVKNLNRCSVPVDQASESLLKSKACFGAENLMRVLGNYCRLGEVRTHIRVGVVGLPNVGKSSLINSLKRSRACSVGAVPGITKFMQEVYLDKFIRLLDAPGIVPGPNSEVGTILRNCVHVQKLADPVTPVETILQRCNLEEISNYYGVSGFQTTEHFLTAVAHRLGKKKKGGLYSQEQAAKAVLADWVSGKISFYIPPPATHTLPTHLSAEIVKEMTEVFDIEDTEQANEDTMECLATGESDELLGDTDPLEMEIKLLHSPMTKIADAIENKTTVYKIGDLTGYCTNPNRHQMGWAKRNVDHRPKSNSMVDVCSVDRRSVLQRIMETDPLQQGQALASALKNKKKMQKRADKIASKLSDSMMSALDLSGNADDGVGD

Target	thermal stability z-score (lipoamide; [1])	thermal stability z-score (lipoamide; arsenate co-treatment: none)	thermal stability z-score (potassium arsenate)
CARD19 (UniProt Q96LW7)	0.507	1.37	0.524
EML3 (UniProt Q32P44)	0.0786	-0.13	-0.524
MITF (UniProt O75030)	-0.413	-0.377	0.297
IFT140 (UniProt Q96RY7)	-0.182	-0.038	0.083
C18ORF25 (UniProt Q96B23)	-0.688	-0.189	0.363
MARC1 (UniProt Q5VT66)	0.204	0.806	1.12
TPM2 (UniProt P07951)	0.624	0.462	-0.068
SUPV3L1 (UniProt Q8IYB8)	-0.171	-0.116	-0.478
GNAS	0.278	0.172	0.0562
SFXN4 (UniProt Q6P4A7)	-1.11	-0.872	0.207
ZC3H14 (UniProt Q6PJT7)	0.686	-0.0584	-5.55
FAM120A (UniProt Q9NZB2)	-0.00535	-0.0221	0.686
MVK (UniProt Q03426)	-0.352	-0.323	-0.675
CUEDC2 (UniProt Q9H467)	-0.0601	-0.131	0.0094
ZFYVE27 (UniProt Q5T4F4)	-0.0642	-0.19	0.0943
ESD (UniProt P10768)	-0.53	-0.395	0.445
PEX13 (UniProt Q92968)	0.444	0.834	0.284
CD97 (UniProt P48960)	0.325	0.346	0.472
TLN1 (UniProt Q9Y490)	0.266	0.266	-0.682
AK2 (UniProt P54819)	-0.717	-0.168	-0.84
PSIP1 (UniProt O75475)	0.499	0.761	-0.306
CRTC3 (UniProt Q6UUV7)	-0.316	-0.025	0.1
SF1 (UniProt Q15637)	0.425	0.249	0.681
FZD6 (UniProt O60353)	-1.56	-1.7	0.376
TENM3 (UniProt Q9P273)	0.179	-0.452	-0.147
ERAL1 (UniProt O75616)	-0.329	-0.113	-0.45
POMK (UniProt Q9H5K3)	0.213	-0.243	-0.285
TWISTNB (UniProt Q3B726)	-0.926	0.0342	-1.57

Target	thermal stability z-score (lipoamide; [1])	thermal stability z-score (lipoamide; arsenate co-treatment: none)	thermal stability z-score (potassium arsenate)
GOLGA7 (UniProt Q7Z5G4)	-1.29	-0.742	-1.71
TRIM16 (UniProt O95361)	-0.0466	-0.0815	-0.0294
GAL (UniProt P22466)	0.135	-0.122	-0.0332
TOR1AIP1 (UniProt Q5JTV8)	-2.27	-2.09	-0.146
IPO8 (UniProt O15397)	-0.327	-0.557	0.756
LIN9 (UniProt Q5TKA1)	-0.0678	-0.263	-0.121
LOC102723897|WASH3P|WASH2P	0.179	-0.15	0.051
RPL23A (UniProt P62750)	-0.321	-0.341	-1.49
TK2 (UniProt O00142)	0.341	0.589	-0.137
GNL3L (UniProt Q9NVN8)	-0.151	0.0609	-0.0324
PREP (UniProt P48147)	-0.299	-0.268	0.347
ACACA (UniProt Q13085)	-0.534	-0.289	0.153
SMYD4 (UniProt Q8IYR2)	-0.0691	-0.00905	-0.0713
CBSL|CBS	-1.81	-1.33	0.256
MFSD4B (UniProt Q5TF39)	-0.227	0.265	-0.129
ISOC1 (UniProt Q96CN7)	1.2	1.14	8.79
OAT (UniProt P04181)	-0.684	-0.588	3.08
CACYBP (UniProt Q9HB71)	0.276	0.0201	0.37
NUDT9 (UniProt Q9BW91)	-0.674	-0.346	0.0652
LDHA (UniProt P00338)	0.685	0.577	-0.436
PFKL (UniProt P17858)	0.344	0.367	0.476
RAI14 (UniProt Q9P0K7)	-0.47	-0.419	-0.554
SMNDC1 (UniProt O75940)	-0.102	-0.117	-0.5
NFKBIB (UniProt Q15653)	-0.344	-0.271	0.948
TAPT1 (UniProt Q6NXT6)	0.869	0.562	-0.606
ENAH (UniProt Q8N8S7)	-0.14	0.013	-0.515
ASS1 (UniProt P00966)	-0.416	0.107	-1.34
